Measurements as given in patent US20250144067A1, “PERSONALIZED STARVATION THERAPY FOR CANCER” (Faeth Therapeutics, Inc., priority 2021, published 2025).
Structures can show the parent of a compound that is named as a salt. Where two headings read alike, the source gives them in different places.

Columns and labels:
[1] = tested on: NCI-H292 lung cancer cells; test: FDA drug screening, complete media vs cholesterol-free media without statin (TABLE 1); format: cell-based, human
[2] = tested on: NCI-H292 lung cancer cells; test: FDA drug screening, complete media vs cholesterol-free media with simvastatin (TABLE 2); format: cell-based, human
[3] = Complete minus Cholesterol-free, greater than 0 enhanced anti-cancer activity, about 0 neutral, below 0 antagonists
[4] = NCI-H292 cells in cholesterol-free media without statin
[5] = NCI-H292 cells in complete media
[6] = NCI-H292 cells, cholesterol-free media with simvastatin 0.04 μM, cell growth value in FDA drug screen
[7] = NCI-H292 cells, complete media, cell growth value in FDA drug screen
[8] = complete media minus cholesterol-free media + simvastatin, >0 enhanced anti-cancer activity, about 0 neutral, <0 antagonist
[9] = NCI-H292 cells, cholesterol-free media without statin
[10] = complete vs cholesterol-free media, greater than 0 enhanced anti-cancer activity, about 0 neutral, below 0 antagonists
[11] = NCI-H292 cells, drug in cholesterol-free media with simvastatin 0.04 μM
[12] = NCI-H292 cells, drug in complete media
[13] = complete media vs cholesterol-free media + simvastatin (0.04 μM), >0 enhanced anti-cancer activity, about 0 neutral, <0 antagonist
[14] = Complete minus Cholesterol-free, greater than 0 enhanced anti-cancer activity, about 0 neutral, below 0 antagonist
[15] = NCI-H292 cells, FDA drug library screen, cholesterol-free media without statin
[16] = NCI-H292 cells, FDA drug library screen, complete media
[17] = NCI-H292 cells, FDA library drug in cholesterol-free media with simvastatin 0.04 μM
[18] = NCI-H292 cells, FDA library drug in complete media
[19] = Complete minus Cholesterol-free, >0 enhanced anti-cancer activity, about 0 neutral, <0 antagonist
[20] = NCI-H292 cells, FDA drug library screen, cholesterol-free media with simvastatin 0.04 μM
[21] = NCI-H292 cells, cholesterol-free media without statin, FDA drug library screen
[22] = NCI-H292 cells, complete media, FDA drug library screen
[23] = complete vs cholesterol-free media, >0 enhanced anti-cancer activity, about 0 neutral, <0 antagonist
[24] = Complete minus Cholesterol-free, […]
[25] = NCI-H292 cells, cholesterol-free media with simvastatin 0.04 μM, FDA drug library screen (TABLE 2)
[26] = NCI-H292 cells, complete media, FDA drug library screen (TABLE 2)
[27] = complete media minus cholesterol-free media + simvastatin (0.04 μM), >0 enhanced anti-cancer activity, about 0 neutral, <0 antagonist

CC(=O)OCC(=O)[C@@]1(O)CC[C@H]2[C@@H]3CCC4=CC(=O)CC[C@]4(C)[C@H]3C(=O)C[C@@]21C [Cortisone acetate]
Difference [1, 3]: −1.35 | Cholesterol-free [1, 4]: 2.332 | Complete [1, 5]: 0.9837 | Cholesterol-free media + simvastatin (0.04 μM) [2, 6]: 1.003 | Complete Media [2, 7]: 1.101 | Difference [2, 8]: 0.10

Nc1ccncc1N [Amifampridine]
Cholesterol-free [1, 9]: 1.476 | Complete ([1]; NCI-H292 cells, complete media): 1.141 | Difference [1, 10]: −0.33 | Cholesterol-free media + simvastatin (0.04 μM) [2, 11]: 1.299 | Complete Media [2, 12]: 1.071 | Difference [2, 13]: −0.23

CO[C@H]1C[C@@H]2CC[C@@H](C)[C@@](O)(O2)C(=O)C(=O)N2CCCC[C@H]2C(=O)O[C@H]([C@H](C)C[C@@H]2CC[C@@H](O)[C@H](OC)C2)CC(=O)[C@H](C)/C=C(\C)[C@@H](O)[C@@H](OC)C(=O)[C@H](C)C[C@H](C)/C=C/C=C/C=C/1C [Rapamycin]
Difference [1, 14]: −0.13 | Cholesterol-free [1, 15]: 0.3515 | Complete [1, 16]: 0.2187 | Cholesterol-free media + simvastatin (0.04 μM) [2, 17]: 1.159 | Complete Media [2, 18]: 0.8704 | Difference [2, 13]: −0.29

CCOC(=O)C1=C(C)NC(C)=C(C(=O)OC)C1c1cccc(Cl)c1Cl (stereo not shown) [Felodipine]
Difference [1, 19]: −0.19 | Cholesterol-free [1, 9]: 1.202 | Complete ([1]; NCI-H292 cells, complete media): 1.01 | Cholesterol-free media + simvastatin (0.04 μM) [2, 11]: 1.148 | Complete Media [2, 12]: 0.9051 | Difference [2, 13]: −0.24

O=C(O)c1cc(=O)[nH]c(=O)[nH]1 [Orotic acid]
Difference [1, 19]: −0.23 | Cholesterol-free [1, 9]: 1.001 | Complete ([1]; NCI-H292 cells, complete media): 0.7657 | Cholesterol-free media + simvastatin (0.04 μM) [2, 6]: 1.191 | Complete Media [2, 7]: 1.261 | Difference [2, 8]: 0.07

CCOc1ccc2ccccc2c1C(=O)N[C@@H]1C(=O)N2[C@@H]1SC(C)(C)[C@@H]2C(=O)O [Nafcillin (sodium monohydrate)]
Difference [1, 3]: −1.00 | Cholesterol-free [1, 4]: 1.957 | Complete [1, 5]: 0.9538 | Cholesterol-free media + simvastatin (0.04 μM) [2, 20]: 0.8693 | Difference [2, 8]: 0.30

NC[C@@H]1O[C@H](O[C@H]2[C@@H](O)[C@H](O[C@@H]3[C@@H](O)[C@H](N)C[C@H](N)[C@H]3O[C@H]3O[C@H](CN)[C@@H](O)[C@H](O)[C@H]3N)O[C@@H]2CO)[C@H](N)[C@@H](O)[C@@H]1O.O=S(=O)(O)O [Neomycin (sulfate)]
Difference [1, 14]: −0.17 | Cholesterol-free [1, 15]: 1.592 | Complete [1, 16]: 1.421 | Cholesterol-free media + simvastatin (0.04 μM) [2, 20]: 0.8549 | Complete Media [2, 16]: 1.021 | Difference [2, 8]: 0.17

Oc1c(Cl)cc(Cl)c2cccnc12 [Chloroxine]
Cholesterol-free [1, 21]: 1.086 | Complete [1, 22]: 1.288 | Difference [1, 23]: 0.20 | Cholesterol-free media + simvastatin (0.04 μM) [2, 6]: 0.8888 | Complete Media [2, 7]: 1.011 | Difference [2, 8]: 0.12

C=CCc1ccccc1OCC(O)CNC(C)C (stereo not shown) [Alprenolol (hydrochloride)]
Difference [1, 14]: −0.15 | Cholesterol-free [1, 15]: 1.198 | Complete [1, 16]: 1.044 | Cholesterol-free media + simvastatin (0.04 μM) [2, 20]: 1.228 | Difference [2, 13]: −0.08

COc1ccccc1N1CCN(CC(O)COc2cccc3ccccc23)CC1 (stereo not shown) [Naftopidil]
Difference [1, 3]: −0.98 | Cholesterol-free [1, 4]: 1.94 | Complete [1, 5]: 0.9592 | Cholesterol-free media + simvastatin (0.04 μM) [2, 6]: 0.6892 | Complete Media [2, 7]: 0.763 | Difference [2, 8]: 0.07

O=C(CCBr)N1CCN(C(=O)CCBr)CC1 [Pipobroman]
Difference [1, 19]: −0.30 | Cholesterol-free [1, 9]: 1.38 | Complete ([1]; NCI-H292 cells, complete media): 1.078 | Cholesterol-free media + simvastatin (0.04 μM) [2, 17]: 1.384 | Complete Media [2, 18]: 1.051 | Difference [2, 13]: −0.33

C[C@@H](O[C@H]1OCCN(Cc2n[nH]c(=O)[nH]2)[C@H]1c1ccc(F)cc1)c1cc(C(F)(F)F)cc(C(F)(F)F)c1 [Aprepitant]
Difference [1, 19]: −0.20 | Cholesterol-free [1, 9]: 0.998 | Complete ([1]; NCI-H292 cells, complete media): 0.7992 | Cholesterol-free media + simvastatin (0.04 μM) [2, 6]: 1.036 | Complete Media [2, 7]: 1.144 | Difference [2, 8]: 0.11

CC(C)(C)NC(=O)[C@H]1CC[C@H]2[C@@H]3CC=C4C=C(C(=O)O)CC[C@]4(C)[C@H]3CC[C@]12C [Epristeride]
Cholesterol-free [1, 21]: 0.5663 | Complete [1, 22]: 1.029 | Difference [1, 23]: 0.46 | Cholesterol-free media + simvastatin (0.04 μM) [2, 20]: 0.7018 | Complete Media [2, 16]: 0.8964 | Difference [2, 8]: 0.19

N=C(N)/N=C(\N)N1CCOCC1 [Moroxydine (hydrochloride)]
Cholesterol-free [1, 9]: 1.172 | Complete ([1]; NCI-H292 cells, complete media): 0.8572 | Difference [1, 10]: −0.32 | Cholesterol-free media + simvastatin (0.04 μM) [2, 11]: 1.02 | Complete Media [2, 12]: 0.8563 | Difference [2, 13]: −0.16

Lefamulin (acetate)
Difference [1, 24]: −0.23 | Cholesterol-free [1, 9]: 1.096 | Complete ([1]; NCI-H292 cells, complete media): 0.8619 | Cholesterol-free media + simvastatin (0.04 μM) [2, 20]: 1.429 | Complete Media [2, 16]: 1.575 | Difference ([2]; complete media minus cholesterol-free media + simvastatin, […]): 0.15

CCOC(=O)[C@H](CCc1ccccc1)N[C@@H](C)C(=O)N1[C@H](C(=O)O)C[C@H]2CCCC[C@@H]21 [Trandolapril]
Difference [1, 14]: −0.10 | Cholesterol-free [1, 15]: 1.068 | Complete [1, 16]: 0.9671 | Cholesterol-free media + simvastatin (0.04 μM) [2, 11]: 1.441 | Complete Media [2, 12]: 1.221 | Difference [2, 13]: −0.22

Cc1[nH]c(=O)c(C#N)cc1-c1ccncc1 [Milrinone]
Difference [1, 19]: −0.04 | Cholesterol-free [1, 21]: 0.9793 | Complete [1, 22]: 0.9407 | Cholesterol-free media + simvastatin (0.04 μM) [2, 20]: 1.16 | Complete Media [2, 16]: 1.825 | Difference [2, 8]: 0.66

NC(=O)c1ccccc1O [Salicylamide]
Difference [1, 3]: −0.58 | Cholesterol-free [1, 4]: 1.486 | Complete [1, 5]: 0.907 | Cholesterol-free media + simvastatin (0.04 μM) [2, 25]: 1.206 | Complete Media [2, 26]: 1.141 | Difference [2, 27]: −0.07

N#Cc1ccc(Oc2ccc3c(c2)COB3O)cc1 [Crisaborole]
Difference [1, 14]: −0.14 | Cholesterol-free [1, 15]: 1.199 | Complete [1, 16]: 1.059 | Cholesterol-free media + simvastatin (0.04 μM) [2, 17]: 1.417 | Complete Media [2, 18]: 0.9479 | Difference [2, 13]: −0.47

CNCCC(Oc1ccc(C(F)(F)F)cc1)c1ccccc1 (stereo not shown) [Fluoxetine (hydrochloride)]
Cholesterol-free [1, 9]: 1.383 | Complete ([1]; NCI-H292 cells, complete media): 0.9864 | Difference [1, 10]: −0.40 | Cholesterol-free media + simvastatin (0.04 μM) [2, 20]: 0.8887 | Complete Media [2, 16]: 1.043 | Difference [2, 8]: 0.15

O=C1Cc2cc(CCN3CCN(c4nsc5ccccc45)CC3)c(Cl)cc2N1 [Ziprasidone (hydrochloride monohydrate)]
Cholesterol-free [1, 21]: 0.5848 | Complete [1, 22]: 0.8552 | Difference [1, 23]: 0.27 | Cholesterol-free media + simvastatin (0.04 μM) [2, 6]: 0.5734 | Complete Media [2, 7]: 0.6228 | Difference [2, 8]: 0.05

NCCCC[C@H](N)C(=O)O [L-Lysine]
Difference [1, 24]: −0.24 | Cholesterol-free [1, 9]: 1.096 | Complete ([1]; NCI-H292 cells, complete media): 0.8592 | Cholesterol-free media + simvastatin (0.04 μM) [2, 17]: 1.021 | Complete Media [2, 18]: 0.7295 | Difference ([2]; complete media vs cholesterol-free media + simvastatin (0.04 μM), […]): −0.29

C#Cc1cccc(Nc2ncnc3cc4c(cc23)OCCOCCOCCO4)c1 [Icotinib]
Difference [1, 19]: −0.05 | Cholesterol-free [1, 21]: 0.4295 | Complete [1, 22]: 0.3774 | Cholesterol-free media + simvastatin (0.04 μM) [2, 6]: 0.6476 | Complete Media [2, 7]: 0.6925 | Difference [2, 8]: 0.04

CN1CCC(=C2c3ccccc3CCn3c(C=O)cnc32)CC1 [Alcaftadine]
Cholesterol-free [1]: 1.45 | Complete [1]: 1.003 | Difference [1]: −0.45 | Cholesterol-free media + simvastatin (0.04 μM) [2]: 1.165 | Complete Media [2]: 0.9908 | Difference [2]: −0.17

CN(C)[C@@H](CCOc1cccc2ccccc12)c1ccccc1 [Dapoxetine (hydrochloride)]
Cholesterol-free [1, 9]: 1.092 | Complete ([1]; NCI-H292 cells, complete media): 0.7794 | Difference [1, 10]: −0.31 | Cholesterol-free media + simvastatin (0.04 μM) [2, 25]: 1.079 | Complete Media [2, 26]: 1.031 | Difference [2, 27]: −0.05

CC1CCCC(C)N1CCCC(O)(c1ccccc1)c1ccccn1 (stereo not shown) [Pirmenol (hydrochloride)]
Difference [1, 14]: −0.15 | Cholesterol-free [1, 15]: 0.8727 | Complete [1, 16]: 0.7238 | Cholesterol-free media + simvastatin (0.04 μM) [2, 20]: 1.664 | Complete Media [2, 16]: 1.547 | Difference [2, 13]: −0.12

Cc1ccc(Cl)c(Nc2ccccc2C(=O)O)c1Cl [Meclofenamate (sodium)]
Difference [1, 3]: −0.59 | Cholesterol-free [1, 4]: 1.453 | Complete [1, 5]: 0.8579 | Cholesterol-free media + simvastatin (0.04 μM) [2, 20]: 1.009 | Complete Media [2, 16]: 1.718 | Difference [2, 8]: 0.71

C=CCCCCCCCCC(=O)O [10-Undecenoic acid]
Difference [1, 19]: 0.01 | Cholesterol-free [1, 21]: 0.9796 | Complete [1, 22]: 0.99 | Cholesterol-free media + simvastatin (0.04 μM) [2, 17]: 1.07 | Complete Media [2, 18]: 0.7648 | Difference [2, 13]: −0.30
